The test system of data set [1] is Toxoplasma gondii RH-2F tachyzoites. Kind of data set: microbe, parasite or virus in culture. The conditions noted are these: 72 h.
The subject of the next data set is P-glycoprotein. As to conditions: cited from earlier work.
For another data set, the target named is human muscarinic AChR M4. Set-up: method as in vendor brief description. As to conditions: ref vendor brief description; cited from earlier work.
The target in a further data set is human muscarinic AChR M1. Set-up: method as in vendor brief description. The conditions noted are these: ref vendor brief description; cited from earlier work.
The target of another data set is human muscarinic AChR M2. Details: method as in vendor brief description. As to conditions: ref vendor brief description; cited from earlier work.
The target of a further data set is human muscarinic AChR M5. Set-up: method as in vendor brief description. As to conditions: ref vendor brief description; cited from earlier work.
The target in another data set is human muscarinic AChR M3. Set-up: method as in vendor brief description. The conditions noted are these: ref vendor brief description; cited from earlier work.
The next data set concerns PDE5. As to conditions: read-out: IC50 PDE5; ref vendor brief description; cited from earlier work.
The subject of another data set is Flt-1. Set-up: method as in vendor brief description. As to conditions: ref vendor brief description; cited from earlier work.
A further data set concerns Kit. Set-up: method as in vendor brief description. The conditions noted are these: ref vendor brief description; cited from earlier work.
The next data set is described as follows: in vitro. As to conditions: human, Host viability (%) mean.
The test system of the next data set is Flt-4. Set-up: method as in vendor brief description. The conditions noted are these: ref vendor brief description; cited from earlier work.
Another data set deals with AXL. Details: method as in vendor brief description. The conditions noted are these: ref vendor brief description; cited from earlier work.
Another data set relates to VEGFR-2. Set-up: method as in vendor brief description. As to conditions: ref vendor brief description; cited from earlier work.
Another data set relates to Ret. Set-up: method as in vendor brief description. As to conditions: ref vendor brief description; cited from earlier work.
The next data set has as its target tyrosinase. Details: method as in vendor brief description. As to conditions: ref vendor brief description; cited from earlier work.
Another data set concerns S1P. Details: method as in vendor brief description. As to conditions: ref vendor brief description; cited from earlier work.
Data set [2] concerns the target H3K27 histone demethylase JMJD3/UTX. Details: method as in vendor brief description. As to conditions: ref vendor brief description; cited from earlier work.
Another data set concerns PI3Kγ. Details: method as in vendor brief description. The conditions noted are these: ref vendor brief description; cited from earlier work.
For the next data set, the target named is recombinant human mGlu2. Details: method as in vendor brief description. The conditions noted are these: ref vendor brief description; cited from earlier work.
The target of data set [3] is recombinant human mGlu3 receptors. Details: method as in vendor brief description. The conditions noted are these: ref vendor brief description; cited from earlier work.
Data set [4] addresses rat neurons expressing native mGlu2/3 receptors. Set-up: method as in vendor brief description. The conditions noted are these: ref vendor brief description; cited from earlier work.
Another data set deals with β3-adrenoceptor. Set-up: method as in vendor brief description. As to conditions: ref vendor brief description; cited from earlier work.
In another data set the test system is 20S proteasome β5. Details: method as in vendor brief description. The conditions noted are these: read-out: IC50 CT-L activity of 20S proteasome β5; ref vendor brief description; cited from earlier work.
The subject of another data set is LMP7. Set-up: method as in vendor brief description. The conditions noted are these: read-out: IC50 CT-L activity of 20S proteasome LMP7; ref vendor brief description; cited from earlier work.
The subject of another data set is nonsense mutation. The conditions noted are these: ref vendor brief description; read-out: EC50 nonsense mutation inhibition; cited from earlier work.
Data set [5] deals with N-methyl-D-aspartate (NMDA) receptor. Set-up: method as in vendor brief description. The conditions noted are these: ref vendor brief description; cited from earlier work.
In another data set the target is 5-HT3. Set-up: method as in vendor brief description. The conditions noted are these: ref vendor brief description; cited from earlier work.
Another data set concerns nAChR. Set-up: method as in vendor brief description. The conditions noted are these: ref vendor brief description; cited from earlier work.
Another data set has as its system sodium channel. Details: method as in vendor brief description. As to conditions: ref vendor brief description; cited from earlier work.
For data set [6], the system named is Toxoplasma gondii RH-2F tachyzoites.
The next data set addresses myeloperoxidase. As to conditions: read-out: IC50 myeloperoxidase; ref vendor brief description; cited from earlier work.
For the next data set, the target named is β2-adrenergic receptor. Set-up: method as in vendor brief description. As to conditions: ref vendor brief description; cited from earlier work.
The subject of the next data set is 4-hydroxylation. Set-up: method as in vendor brief description. The conditions noted are these: ref vendor brief description; cited from earlier work.
Another data set relates to CYP2C9. Set-up: method as in vendor brief description. As to conditions: ref vendor brief description; cited from earlier work.
The subject of the next data set is class I PI3K. Details: method as in library vendor description. As to conditions: ref library vendor description; read-out: IC50 pan-class I PI3K; cited from earlier work.
Where [7] appears, read: read-out: Parasite inhibition (%) mean, preliminary screen of compound library, mean.

Usually Ki stands for a dissociation constant, usually derived from enzyme kinetics or from competition with a known ligand. As usually defined, the IC50 is the midpoint of a concentration-inhibition curve. Broadly, the viability is a per cent measure of how many cells are alive, often set against a control. As a reminder, the EC50 is the concentration at which the effect is half-maximal. What is called Kd is the equilibrium constant for the complex coming apart.

Each structure is given as a SMILES string. Where a name gives a salt, the structure may show the parent alone. Read-outs that look alike come from different tables or passages of the source.

In the case of `COC1CCN(C(=O)c2cc(Cc3n[nH]c(=O)c4ccccc34)ccc2F)CC1` [AZD2461], in data set [1] (setting [7]), the inhibition of growth at 5 µM stood at 11%. Also, the P-glycoprotein substrate property entry with P-glycoprotein was “AZD2461 is a poor P-glycoprotein substrate with lower affinity for Pgp than does olaparib”.

In the case of `O=C(O[C@H]1C[N+]2(CCCOc3ccccc3)CCC1CC2)C(O)(c1cccs1)c1cccs1` [Aclidinium Bromide], the inhibition of growth at 5 µM in data set [1] (read-out: Parasite inhibition (%) mean) is 1.8%. For the same compound, the Ki on human muscarinic AChR M4 was 0.21 nM; at human muscarinic AChR M1 it was 0.1 nM; on human muscarinic AChR M2, 0.14 nM; on human muscarinic AChR M5, 0.16 nM; at human muscarinic AChR M3, 0.14 nM.

Turning to `COc1ccc(CN=c2[nH]c(N3CCC[C@H]3CO)ncc2C(=O)NCc2ncccn2)cc1Cl` [Avanafil], the inhibition of growth at 5 µM in data set [1] (setting [7]) came out at 7.5%. In addition, in the data set with PDE5, the IC50 is 1 nM.

On to `COc1cc2nccc(Oc3ccc(NC(=O)C4(C(=O)Nc5ccc(F)cc5)CC4)cc3)c2cc1OC` [Cabozantinib malate], for which the IC50 in the data set with Flt-1 was 12 nM; in the data set with Kit, […]; in the data set on Flt-4 it was 6 nM; with AXL, […]; with VEGFR-2, 0.035 nM; with Ret it was […]. Further, in data set [1] (setting [7]), the inhibition of growth at 5 µM came out at 80.4%. Also, the viability at 72 h in “in vitro” came to 43.1%.

As to `Oc1ccc(OC2CCCCO2)cc1` (centres unmarked) [Deoxyarbutin], the inhibition of growth at 5 µM in data set [1] (setting [7]) came out at 33.4%. In addition, at tyrosinase, the IC50 is 50 nM.

As for `CCCCCCCCc1ccc(CCC(N)(CO)CO)cc1` [Fingolimod (FTY720)], the IC50 in the data set with S1P was 0.033 nM. Moreover, the inhibition of growth at 5 µM in data set [1] (setting [7]) was 10%.

`O=C(O)CCNc1cc(N2CCc3ccccc3CC2)nc(-c2ccccn2)n1` [GSK J1]: the IC50 in [2] was 60 nM.

As for `C[C@H](Nc1ncnc2[nH]cnc12)c1cc2cccc(Cl)c2c(=O)n1-c1ccccc1` [IPI-145 (INK1197)], in [1] (setting [7]), the inhibition of growth at 5 µM amounted to 1.9%. Moreover, the IC50 in the data set with PI3Kγ is 50 nM.

Consider `N[C@@]1(C(=O)O)CS(=O)(=O)[C@H]2[C@H](C(=O)O)[C@H]21` [LY2140023 (LY404039)], for which the figures for the Ki (on recombinant human mGlu2; in [3]; in [4]) were 149 nM, 92 nM and 88 nM, respectively. Further, in data set [1] (setting [7]), the inhibition of growth at 5 µM was 2.9%.

As to `Nc1nc(CC(=O)Nc2ccc(CCNC[C@H](O)c3ccccc3)cc2)cs1` [Mirabegron (YM178)], the inhibition of growth at 5 µM in [1] (setting [7]) amounted to 3.8%. For the same compound, the EC50 in the data set on β3-adrenoceptor is 22.4 nM.

As for `COC[C@H](NC(=O)c1cnc(C)s1)C(=O)N[C@@H](COC)C(=O)N[C@@H](Cc1ccccc1)C(=O)C1(C)CO1` (some centres unmarked) [Oprozomib (ONX 0912)], the inhibition of growth at 5 µM in data set [1] (setting [7]) is 9%. Besides, the IC50 in the data set with 20S proteasome β5 was 36 nM; in the data set with LMP7, 82 nM.

On to `O=C(O)c1cccc(-c2noc(-c3ccccc3F)n2)c1` [PTC124 (Ataluren)], for which the inhibition of growth at 5 µM in [1] (setting [7]) is -0.1%. For the same compound, in the data set on nonsense mutation, the EC50 was ~100 nM.

Consider `CCN(CC)CCOC(=O)c1ccc(N)cc1` [Procaine (Novocaine) HCl], for which the inhibition of growth at 5 µM in [1] (setting [7]) was determined as 3.7%. Also, the IC50 in data set [5] was 296000 nM; in the data set with nAChR, 45500 nM; in the data set with sodium channel, 60000 nM. The Kd at 5-HT3 was 1700 nM.

Turning to `O=N[O-].[Na+]` [Sodium Nitrite], in data set [6], the “Parasite inhibition (%) mean” value is recorded as 49.5%. The IC50 on myeloperoxidase was 1300 nM.

On to `CC(C)(C)NCC(O)c1cc(O)cc(O)c1` (centres unmarked) [Terbutaline Sulfate], for which the half-inhibitory concentration (IC50) on β2-adrenergic receptor was 53 nM. In addition, the inhibition of growth at 5 µM in data set [1] (setting [7]) came to 40.1%.

For `CCCSc1nc(N[C@@H]2C[C@H]2c2ccc(F)c(F)c2)c2nnn([C@@H]3C[C@H](OCCO)[C@@H](O)[C@H]3O)c2n1` [Ticagrelor], in data set [1] (setting [7]), the inhibition of growth at 5 µM worked out at 4.7%. Moreover, the 50% inhibitory concentration (IC50) with 4-hydroxylation was […]; in the data set with CYP2C9, 10500 nM.

As for `FC(F)c1nc2ccccc2n1-c1nc(N2CCOCC2)nc(N2CCOCC2)n1` [ZSTK474], in data set [1] (read-out: Parasite inhibition (%) mean, preliminary screen, mean), the inhibition of growth at 5 µM is 49.8%. Moreover, the IC50 with class I PI3K was 37 nM.

The record behind these values is article PMC7216583 (Parasites & Vectors, 2020).
